Reference: DBAASP
Converted amounts (≈) assume the structure as drawn. “And” between values parts separate entries of the source, which are not always exact repeats. Identical values can stand only once.

Assays:
Experiment in all cases: ≥ marks a high value that may be exact or a test limit, other limits are often not marked, values filed in µg/mL are converted to µM
[1] = system: Enterobacter cloacae 4172
[2] = system: Enterococcus faecalis ATCC 29212
Escherichia coli 1057 = system: Escherichia coli 1057
Escherichia coli 214 = system: Escherichia coli 214
[3] = system: Escherichia coli BL21(DE3)
Escherichia coli C600 = system: Escherichia coli C600
Escherichia coli ML-35p = system: Escherichia coli ML-35p
[4] = system: Micrococcus luteus VKM B-1314
[5] = system: Staphylococcus aureus ATCC 29213
[6] = system: Escherichia coli ATCC 35218
[7] = system: Klebsiella oxytoca ATCC 13182
[8] = system: Klebsiella pneumoniae ATCC 700603
[9] = system: Klebsiella pneumoniae KpC+001825971
[10] = system: Serratia marcescens ATCC 13880
[11] = system: Staphylococcus aureus ATCC 80958
[12] = system: Candida albicans NCTC 1467
[13] = system: Enterococcus faecalis NCTC 12697
[14] = system: Escherichia coli NCTC 10418
[15] = system: Pseudomonas aeruginosa ATCC 27853
[16] = system: Staphylococcus aureus ATCC 12493
[17] = system: Staphylococcus aureus NCTC 10788
[18] = system: Bacillus subtilis VKM B-501
[19] = system: Staphylococcus aureus 209P
Escherichia coli D31 = system: Escherichia coli D31
[20] = system: Pseudomonas aeruginosa ATCC 10145
[21] = system: Staphylococcus aureus ATCC 27660
[22] = system: Escherichia coli K12 MG1655
Escherichia coli UTI89 = system: Escherichia coli UTI89
[23] = system: Salmonella enterica subsp. enterica serovar Typhimurium ATCC 14028
[24] = system: Staphylococcus epidermidis
[25] = system: Candida albicans NCYC 1467
[26] = system: Klebsiella pneumoniae ATCC 43816
[27] = system: Staphylococcus aureus NCTC 12493

CC[C@H](C)[C@H](NC(=O)[C@@H]1CCCN1C(=O)CNC(=O)[C@@H](NC(=O)[C@H](Cc1ccccc1)NC(=O)[C@@H]1CCCN1C(=O)CNC(=O)[C@@H](NC(=O)[C@H](CCCCN)NC(=O)[C@H](Cc1cnc[nH]1)NC(=O)[C@H](Cc1c[nH]c2ccccc12)NC(=O)[C@H](CC(C)C)NC(=O)[C@H](CCCN=C(N)N)NC(=O)[C@H](CCCCN)NC(=O)[C@H](CC(C)C)NC(=O)[C@H](CCCCN)NC(=O)[C@H](CCCCN)NC(=O)[C@H](CCCN=C(N)N)NC(=O)[C@H](Cc1ccccc1)NC(=O)[C@H](CCCN=C(N)N)NC(=O)[C@H](CCCCN)NC(=O)[C@H](Cc1ccccc1)NC(=O)[C@H](CCCN=C(N)N)NC(=O)CN)C(C)C)C(C)C)C(=O)N[C@@H](CC(C)C)C(=O)N[C@@H](Cc1cnc[nH]1)C(=O)N[C@@H](Cc1ccc(O)cc1)C(=O)O [GRFKRFRKKLKRLWHKVGPFVGPILHY]
MIC [1]: 0.125 µM and 0.25 µM
MIC [2]: 4 µM and 8 µM
MIC (Escherichia coli 1057): 0.125 µM (≈ 0.421 µg/mL)
MIC (Escherichia coli 214): 0.06 µM (≈ 0.202 µg/mL)
MIC [3]: 0.06 µM (≈ 0.202 µg/mL)
MIC (Escherichia coli C600): 0.06 µM and 0.125 µM
MIC (Escherichia coli ML-35p): 0.06 µM (≈ 0.202 µg/mL)
MIC [4]: 0.25 µM and 0.5 µM
MIC [5]: 1 µM and 2 µM

CC(C)C[C@H](NC(=O)[C@H](Cc1ccc(O)cc1)NC(=O)[C@H](C)NC(=O)[C@H](CCCN=C(N)N)NC(=O)[C@H](Cc1ccccc1)NC(=O)[C@H](Cc1ccc(O)cc1)NC(=O)[C@H](CCCCN)NC(=O)[C@@H](NC(=O)[C@H](Cc1c[nH]c2ccccc12)NC(=O)[C@H](CCCN=C(N)N)NC(=O)[C@H](Cc1cnc[nH]1)NC(=O)[C@H](CC(C)C)NC(=O)[C@H](Cc1ccccc1)NC(=O)[C@H](CCCN=C(N)N)NC(=O)[C@@H](NC(=O)[C@H](Cc1ccc(O)cc1)NC(=O)[C@H](CCCCN)NC(=O)[C@@H](N)CCCN=C(N)N)C(C)C)C(C)C)C(=O)O [RKYVRFLHRWVKYFRAYL]
MIC [6]: 7.35 µM (≈ 18.4 µg/mL)
MIC [7]: 1.84 µM (≈ 4.6 µg/mL)
MIC [8]: 3.67 µM (≈ 9.18 µg/mL)
MIC [9]: 25.6 µM (≈ 64.1 µg/mL)
MIC [10]: 1.84 µM (≈ 4.6 µg/mL)
MIC [11]: 7.35 µM (≈ 18.4 µg/mL)

CC[C@H](C)[C@H](NC(=O)CN)C(=O)N[C@@H](CCSC)C(=O)N[C@@H](CC(=O)O)C(=O)N[C@H](C(=O)N[C@H](C(=O)N[C@@H](CCCCN)C(=O)N[C@@H](CC(N)=O)C(=O)N[C@@H](C)C(=O)N[C@@H](C)C(=O)N[C@@H](CCCCN)C(=O)N[C@@H](CC(N)=O)C(=O)N[C@@H](CC(C)C)C(=O)N[C@@H](C)C(=O)NCC(=O)N[C@@H](CCC(N)=O)C(=O)N[C@@H](CC(C)C)C(=O)N[C@@H](CC(C)C)C(=O)N[C@@H](CC(=O)O)C(=O)N[C@@H](CCCCN)C(=O)N[C@@H](CC(C)C)C(=O)N[C@@H](CCCCN)C(=O)N[C@H]1CSSC[C@@H](C(=O)O)NC(=O)[C@H](C)NC(=O)[C@H]([C@@H](C)O)NC(=O)[C@H]([C@@H](C)CC)NC(=O)[C@H](CO)NC1=O)C(C)C)[C@@H](C)O [GIMDTVKNAAKNLAGQLLDKLKCSITAC]
MIC [12]: ≥ 512 µM
MIC [13]: ≥ 512 µM
MIC [14]: ≥ 512 µM
MIC [15]: > 512 µM
MIC [16]: ≥ 512 µM
MIC [17]: ≥ 512 µM

CC[C@H](C)[C@H](NC(=O)[C@H](C)NC(=O)[C@H](CCCCN)NC(=O)[C@H](CCCN=C(N)N)NC(=O)[C@H](CC(C)C)NC(=O)[C@H](Cc1ccccc1)NC(=O)[C@H](CCCCN)NC(=O)[C@H](CCCCN)NC(=O)[C@@H](NC(=O)[C@H](CC(C)C)NC(=O)[C@H](CCCCN)NC(=O)CNC(=O)[C@H](Cc1ccccc1)NC(=O)[C@H](CC(C)C)NC(=O)CN)[C@@H](C)CC)C(=O)N[C@@H](CO)C(=O)N[C@@H](Cc1ccc(O)cc1)C(=O)N[C@@H](C)C(=O)N[C@H](C(=O)N[C@@H](CCCCN)C(=O)N[C@@H](CCCCN)C(=O)N[C@@H](C)C(=O)N[C@@H](CCCN=C(N)N)C(=O)NCC(=O)N[C@@H](CCCCN)C(=O)N[C@@H](Cc1cnc[nH]1)C(=O)O)C(C)C [GLFGKLIKKFLRKAISYAVKKARGKH]
MIC [18]: 0.7 µM (≈ 2.07 µg/mL)
MIC (Escherichia coli C600): 3 µM (≈ 8.88 µg/mL)
MIC [19]: 1.5 µM (≈ 4.44 µg/mL)

CC(C)C[C@H](NC(=O)[C@H](CCCCN)NC(=O)[C@H](CCCCN)NC(=O)[C@H](C)NC(=O)[C@H](CCCCN)NC(=O)[C@H](CCCCN)NC(=O)[C@H](C)NC(=O)CNC(=O)[C@H](CCCCN)NC(=O)[C@H](C)NC(=O)[C@H](Cc1c[nH]c2ccccc12)NC(=O)[C@H](C)NC(=O)[C@H](CCCCN)NC(=O)[C@H](C)NC(=O)[C@H](C)NC(=O)[C@H](CCCCN)NC(=O)[C@@H](N)CCCCN)C(=O)N[C@@H](C)C(=O)N[C@@H](CCCCN)C(=O)NCC(=O)N[C@@H](C)C(=O)NCC(=O)O [KKAAKAWAKGAKKAKKLAKGAG]
MIC (Escherichia coli D31): 15 µM (≈ 33.2 µg/mL)
MIC [8]: > 15 µM
MIC [20]: 15 µM (≈ 33.2 µg/mL)
MIC [21]: 15 µM (≈ 33.2 µg/mL)

CC[C@H](C)[C@H](NC(=O)[C@H](CCCCN)NC(=O)[C@H](CCC(N)=O)NC(=O)[C@H](Cc1c[nH]c2ccccc12)NC(=O)[C@@H](NC(=O)[C@H](CCCN=C(N)N)NC(=O)[C@@H](N)CCCCN)[C@@H](C)CC)C(=O)N[C@@H](CCCCN)C(=O)N[C@@H](CC(N)=O)C(=O)N[C@@H](Cc1ccccc1)C(=O)N[C@@H](Cc1ccccc1)C(=O)N[C@@H](CCC(N)=O)C(=O)N[C@@H](CCCCN)C(=O)N[C@@H](CC(C)C)C(=O)O [KRIWQKIKNFFQKL]
MIC [22]: 6.25 µM (≈ 11.7 µg/mL)
MIC (Escherichia coli UTI89): 6.25 µM (≈ 11.7 µg/mL)
MIC [23]: 25 µM (≈ 46.9 µg/mL)
MIC [24]: 25 µM (≈ 46.9 µg/mL)

CC[C@H](C)[C@H](NC(=O)[C@H](C)NC(=O)[C@H](CCCCN)NC(=O)[C@@H]1CCCN1C(=O)[C@@H](NC(=O)[C@H](CC(C)C)NC(=O)[C@H](CO)NC(=O)[C@H](CC(C)C)NC(=O)[C@@H](N)Cc1ccccc1)[C@@H](C)CC)C(=O)N[C@@H](CO)C(=O)N[C@@H](C)C(=O)N[C@H](C(=O)N[C@@H](CO)C(=O)N[C@@H](C)C(=O)N[C@@H](CC(C)C)C(=O)N[C@@H](C)C(=O)N[C@@H](CC(N)=O)C(=O)N[C@@H](Cc1cnc[nH]1)C(=O)N[C@@H](Cc1ccccc1)C(N)=O)C(C)C [FLSLIPKAISAVSALANHF]
MIC [25]: 16 µM (≈ 32 µg/mL)
MIC [13]: ≥ 32 µM
MIC [14]: ≥ 128 µM
MIC [26]: ≥ 256 µM
MIC [15]: > 512 µM
MIC [17]: 8 µM (≈ 16 µg/mL)
MIC [27]: 16 µM (≈ 32 µg/mL)
